Columns and labels:
[1] = system: murine model of schizophrenia (ketamine-injected female ICR pups); experiment: Pre-pulse inhibition (PPI) in ketamine-injected pups, murine model of schizophrenia; type: in vivo, mouse; conditions: Example 6, intraperitoneal 12 days course
Procedure: Prepulse inhibition (PPI) test was conducted in startle device (Hamilton Kinder, Poway, Calif.) that consists of a plexiglas cylinder (10×10×5 cm) adapted for mouse size in order to restrict a mouse to stand up on its hind legs and enclosed in a ventilated sound attenuated compartment with a high-frequency loudspeaker producing all acoustic stimuli. The background noise was 65 dB. Movements within the cylinder were detected and transduced by a piezoelectric platform and recorded on a computer. Each trial was initiated with 5 minutes acclimation period followed by five startle pulse alone (ASR) successive testing trials and finishing with final five startle pulses alone. Auditory testing included startle pulse alone (ASR, 120 dB/40 msec) plus three different prepulse sessions in which either 20-msec-long 70, 74 and 82 dB stimuli were preceded the 120 dB pulse by 100 msec, with the alternate background noise measurement set as the baseline movements in the cylinder. All trials followed in a pseudo-random order and the average inter-trial interval (ITI) was […]. PPI was defined as the percentage of the decreased in the ratio between the startle magnitude in the presence of the prepulse and the magnitude in the absence of the prepulse (100−(100× magnitude on prepulse+pulse trial/magnitude on pulse trial)). […]

[2] = system: cell suspension of rat neonatal brain tissue; experiment: Neurosphere growth in conditioned medium of pre-treated MSC cultures (neurogenic potential in vitro); type: cell-based
Procedure: 70-80% confluent cultures of bone marrow derived MSCs were cultured in vitro in Dulbecco's modified Eagle's medium (DMEM) without Fetal Bovine Serum (FBS) with and supplemented with the addition of one of the following compounds: None, LiCl (2 mM), PACAP27 (20 nM) or DHEA (1 mM). After 3 days medium was changed with fresh ingredients and cultures were allowed to grow for an additional 24 hours. After 24 hours plates were washed twice with PBS and conditioning medium (C.M.) containing none of the above compounds was placed for additional 24 hours. Conditioned medium harvested from these cultures after 24 hours was filtered in 0.2 um filter supplemented with 1% B27 nutrients mix and used as culture medium for a cell suspension of rat neonatal brain tissue in 24 well plates (10^4 cells/well). […]
The number of developing neurospheres in each conditioned medium type was counted after 5 days of culture and provided an indication of the neurogenic potential of the MSCs culture from which the CM was harvested. […]
The number of developing neurospheres in each conditioned medium type was counted and provided an indication of the neurogenic potential of the MSCs culture from which the C.M. was harvested.

**Q.** Which results are given for `CN1CCN(C2=Nc3cc(Cl)ccc3Nc3ccccc32)CC1` [Clozapine, clozapine]?
**A.** PPI vs Ket control ([1]; 2.5 months after the treatment course ended, FIG. 17): no significant effect; PPI vs Ket control ([1]; 6 weeks after the course ended, FIG. 16): no significant effect

**Q.** Which “neurogenic activity of the MSCs, in vitro” value ([2]; incubation of MSCs in culture with the agent) does the source give for `[Cl-].[Li+]` [LiCl, lithium chloride] here?
**A.** Its value is “enhanced the neurogenic activity”.

**Q.** “HSDGIFTDSYSRYRKQMAVKKYLAAVL [PACAP (P27), fragment of 27 amino acid residues corresponding to amino acids 132-158 of human PACAP]” was tested. Which “number of developing neurospheres” value ([2]; C.M. of MSC cultures treated with the agent (PACAP27 20 nM, DHEA 1 mM) vs non-treated cultures (C.M. alone), FIG. 2) did it give?
**A.** The value was “clear advantage”.

— US20140105871A1, “Use Of Mesenchymal Stem Cells For The Improvement Of Affective And Cognitive Function” (priority 2011, published 2014)
